The source of these data is patent US8728797B2, “Yeast membrane protein expression system and its application in drug screening” (priority 2001, dated 2014).

≈ marks a conversion by molar mass, not a printed value.

For one test, the target named is T1, Cdr1p ATPase (Candida albicans, UniProt P43071, E1416A/I916V/K1177E/L1021S/Q214E/T842S/Y427F).
T1 construct: expressed in transfected cells; host or cells: S. cerevisiae AD1-8u- with pKEN1002 integrated at the PDR5 locus (strain AD1002), plasma membrane fraction
Kind of test: Oligomycin sensitive ATPase/NTPase activity of AD1002 plasma membranes. In kind it is biochemical, C. albicans. The method, then:
Membrane fractions were isolated from S. cerevisiae AD1002 (▪) or parental AD1-8u^− cells (●). ATPase assays were carried out at 30° C. for 30 min, as described in Materials and methods for Example 2. The oligomycin-sensitive activity was determined as the difference in ATPase activity in the presence and absence of 20 μM oligomycin. […] The results are the means (+/−SD) of four determinations carried out on two membrane preparations.
(B) Inhibition profile with KN20 on the oligomycin-sensitive Cdr1p ATPase activity of plasma membranes from AD1002 minus the oligomycin-sensitive ATPase activity of plasma membranes from the isogenic AD1-8u^− strain.
Yeast were grown in YEPD, pH 5.5 at 30° C. until they reached late-exponential phase of growth (OD600 nm=7), washed twice in ice-cold distilled water, and incubated on ice for 30 min to minimize glucose-stimulated Pma1p activity. Cells were resuspended in homogenising medium (50 mM Tris pH 7.5, 2 mM EDTA and 1 mM phenylmethylsulfonyl fluoride) and disrupted using a Braun Homogeniser. Cell debris and unbroken cells were removed by centrifuging at 2,000×g at 4° C. for 10 min. A crude membrane fraction was isolated from the cell-free supernatant by centrifuging at 30,000×g at 4° C. for 45 min. Plasma membranes were prepared by centrifugation of the supernatant obtained after selective precipitation of mitochondria at pH 5.2 as described previously (Goffeau, A. and Dufour, J. P., 1988). The plasma membranes were resuspended in 10 mM Tris pH 7.0, 0.5 mM EDTA and 20% [v/v] glycerol and stored at −80° C. Protein was determined using a micro-Bradford (Bio-Rad Laboratories, Hercules, Calif. [Bradford, M. M., 1976]) assay with gamma-globulin as standard. Nucleotide triphosphatase activity was measured by incubating the plasma membrane fractions (10 μg) at 30° C. in a final volume of 120 μl containing 6 mM NTP, 7 mM MgSO4 in 59 mM MES-Tris buffer pH 6.0-8.0. To eliminate possible contributions from nonspecific phosphatases, vacuolar, or mitochondrial ATPases, 0.2 mM ammonium molybdate, 50 mM KNO3 and 10 mM NaN3, respectively, were included in assays (Monk B C, et al, 1991). Other ATPase inhibitors (20 μM oligomycin, 20 μM aurovertin B or 100 μM vanadate were added to the reaction where indicated. After 30 min the reaction was stopped by adding 130 μl of a solution containing 1% (w/v) SDS, 0.6 M H2SO4, 1.2% (w/v) ammonium molybdate and 1.6% (w/v) ascorbic acid. Inorganic phosphate released from NTPs was measured at 750 nm after 10 min incubation at room temperature.

Another test relates to AD-PDR5 (Pdr5p). Nature of the test: MIC in liquid microdilution assay, AD-PDR5. In kind it is cell-based, S. cerevisiae. The conditions noted are these: Saccharomyces cerevisiae. The method, then: (§1) The MICs of antifungal agents for S. cerevisiae cells were determined by a microdilution test based on the macrodilution reference method of the National Committee for Clinical Laboratory Standards. Cells (10 μl cell suspension, 2×10^5 cells/ml) were inoculated into 90 μl CSM-URA, buffered with 10 mM 2-(N-morpholino)ethanesulfonic acid (MES) and 18 mM N-2-hydroxyethylpiperazine-N′-2-ethanesulfonic acid (HEPES), pH 7.0 and containing 0.67% (w/v) yeast nitrogen base (YNB) in microtitre plate wells. For the uracil-requiring strain AD1-8u^− the medium was supplemented with 0.02% (w/v) uridine. The wells contained, in […], doubling dilutions of antifungal agents (final concentrations: fluconazole, 40-0.078 μg/ml; itraconazole and ketoconazole, 8-0.016 μg/ml). The microtitre plates were incubated at 30° C. for 48 h with shaking and then the growth of cells in individual wells (OD590) was measured with a microplate reader (EL 340, Bio-Tek, Winooski, Vt.). The MIC80 was the lowest concentration of drug that inhibited growth yield by at least 80% compared to a no-drug control.

A further test concerns AD-BEN^R (Ben^Rp). Kind of test: Disk diffusion assay, AD-BEN^R. The format is cell-based, S. cerevisiae. As to conditions: AD-pABC as negative control, 30° C., 48 h. The method, then: The cells were spread on CSM-agar plates and exposed to the drugs or chemicals applied to filter disks and incubated at 30° C. for 48 h. The amounts of individual drugs are given in the Materials and Methods section of Example 3. Rhodamine 6G and rhodamine 123 were dissolved in ethanol and the other antifungals were dissolved in DMSO.
Drug susceptibility was measured using disk assays on CSM-URA plates (containing 1.5% w/v agar). Yeast cells (200 μl ml of 5×10^6 cells/ml) were spread on the plates. 10 μl of drug solution or solvent control were spotted onto sterile Whatman paper disks on the pre-spread plates. The following amounts (nmoles) of drugs were applied to individual disks: fluconazole, 633 (Pfizer Ltd., Sandwich, Kent, United Kingdom); itraconazole, 0.23 (Janssen); miconazole, 0.42 (Janssen); cycloheximide, 0.71 (Sigma); rhodamine 6G, 100 (Sigma, Penrose, Auckland, N. Z.); rhodamine 123, 125 (Sigma); cerulenin 4.5 (Sigma); 5-flucytosine 100 (Sigma); amphotericin B, 97 (E. R. Squibb & Sons, Princeton, N.J.); nystatin 65 (Sigma). Agar plates were incubated at 30° C. for 48 h or until clear growth inhibition zones were visible.

The subject of test [1] is AD1-8u^− derivative transformed with C. glabrata PDH1. Kind of test: MIC, PDH1 construct. In kind it is cell-based, S. cerevisiae. The conditions noted are these: Nakaseomyces glabratus; PDH1 hyper-expressed. The method, then:
as §1

Test [2] relates to S. cerevisiae AD1-8u^− hyper-expressing CDR1-2. Kind of test: MIC, CDR1 allele 2 hyper-expressed. In kind it is cell-based. The conditions noted are these: Saccharomyces cerevisiae; hyper-expression of CDR1-2 allele. The method, then:
as §1

T1 sequence (P43071 whole entry Q214E/Y427F/T842S/I916V/L1021S/K1177E/E1416A): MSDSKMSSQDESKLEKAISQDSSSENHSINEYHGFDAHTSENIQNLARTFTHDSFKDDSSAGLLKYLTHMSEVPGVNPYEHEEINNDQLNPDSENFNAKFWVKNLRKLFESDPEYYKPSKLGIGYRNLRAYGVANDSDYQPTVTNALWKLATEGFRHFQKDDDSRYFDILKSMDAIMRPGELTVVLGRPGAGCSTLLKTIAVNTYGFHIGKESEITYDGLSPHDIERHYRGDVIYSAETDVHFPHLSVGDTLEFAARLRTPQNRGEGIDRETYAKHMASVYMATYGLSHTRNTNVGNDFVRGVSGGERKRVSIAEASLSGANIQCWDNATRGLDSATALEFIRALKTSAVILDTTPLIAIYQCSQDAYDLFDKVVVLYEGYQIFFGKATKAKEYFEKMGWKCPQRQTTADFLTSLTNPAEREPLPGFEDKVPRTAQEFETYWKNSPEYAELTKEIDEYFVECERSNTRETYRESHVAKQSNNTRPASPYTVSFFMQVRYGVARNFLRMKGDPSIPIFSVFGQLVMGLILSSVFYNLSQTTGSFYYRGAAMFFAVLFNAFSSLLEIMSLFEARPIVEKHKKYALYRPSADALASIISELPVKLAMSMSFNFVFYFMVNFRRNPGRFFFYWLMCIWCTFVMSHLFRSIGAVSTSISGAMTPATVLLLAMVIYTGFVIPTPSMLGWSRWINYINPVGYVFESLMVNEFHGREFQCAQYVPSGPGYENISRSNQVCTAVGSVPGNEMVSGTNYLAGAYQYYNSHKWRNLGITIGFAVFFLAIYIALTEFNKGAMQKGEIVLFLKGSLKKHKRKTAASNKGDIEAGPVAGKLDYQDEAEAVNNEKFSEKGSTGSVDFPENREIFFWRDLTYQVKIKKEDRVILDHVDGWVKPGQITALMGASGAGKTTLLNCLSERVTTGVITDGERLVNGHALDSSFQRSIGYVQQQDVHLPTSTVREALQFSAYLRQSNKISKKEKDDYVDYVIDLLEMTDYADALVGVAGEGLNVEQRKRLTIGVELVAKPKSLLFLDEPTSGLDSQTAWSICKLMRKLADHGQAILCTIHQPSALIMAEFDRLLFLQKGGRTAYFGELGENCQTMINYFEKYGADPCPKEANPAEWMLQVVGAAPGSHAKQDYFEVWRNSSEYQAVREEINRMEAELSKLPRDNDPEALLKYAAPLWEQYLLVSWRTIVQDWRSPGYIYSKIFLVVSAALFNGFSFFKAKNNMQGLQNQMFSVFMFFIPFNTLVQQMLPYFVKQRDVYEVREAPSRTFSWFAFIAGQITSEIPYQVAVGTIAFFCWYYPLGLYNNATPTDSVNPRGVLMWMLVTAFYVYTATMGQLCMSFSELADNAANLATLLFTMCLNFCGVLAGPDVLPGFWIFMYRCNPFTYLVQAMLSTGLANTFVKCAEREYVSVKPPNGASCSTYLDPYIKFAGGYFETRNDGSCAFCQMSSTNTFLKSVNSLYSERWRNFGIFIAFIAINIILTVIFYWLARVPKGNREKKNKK

The MIC is the lowest concentration found to suppress growth. A low value points to inhibition by little substance. In the case of `OC(Cn1cncn1)(Cn1cncn1)c1ccc(F)cc1F` [fluconazole], the “effect on oligomycin sensitive Cdr1p ATPase activity” value on Cdr1p ATPase (in vitro) is recorded as “does not affect”. Besides, the MIC was determined as 400 µg/mL (≈ 1310 µM) in the test on AD-PDR5 (Pdr5p), 200 µg/mL (≈ 653 µM) in test [1] and 80 µg/mL (≈ 261 µM) in test [2]. In addition, the “resistance/sensitivity in disk diffusion assay” value in the test with AD-BEN^R (Ben^Rp) was “resistant”.
As to “D-octapeptide NH2-Asn-Trp-Trp-Lys-Val-Arg-Arg-Arg-CONH2 with a single 4-methoxy-2,3,6-trimethylbenzenesulphonyl (Mtr) substituent on one tryptophan sidechain; Pdr5p inhibitor [KN20]”, on Cdr1p ATPase (AD1002 plasma membranes, read-out: 150 for oligomycin sensitive ATPase activity), the IC50 was approximately 8 µM.
